Assay results as given in patent publication US8765730B2 (Hoffmann-La Roche Inc, priority 2010, dated 2014).
pEC50: −log10 of the molar value.

target: T1, human GPBAR1 receptor (Homo sapiens, UniProt Q8TDU6); test: functional cAMP assay in CHO-dhfr(minus) cells expressing human GPBAR1 receptors; assay type: cell-based; conditions: functional cAMP assay, 30 min at 30° C., read-out: human EC50
T1 construct: expressed in transfected cells
T1 sequence (Q8TDU6 1-330): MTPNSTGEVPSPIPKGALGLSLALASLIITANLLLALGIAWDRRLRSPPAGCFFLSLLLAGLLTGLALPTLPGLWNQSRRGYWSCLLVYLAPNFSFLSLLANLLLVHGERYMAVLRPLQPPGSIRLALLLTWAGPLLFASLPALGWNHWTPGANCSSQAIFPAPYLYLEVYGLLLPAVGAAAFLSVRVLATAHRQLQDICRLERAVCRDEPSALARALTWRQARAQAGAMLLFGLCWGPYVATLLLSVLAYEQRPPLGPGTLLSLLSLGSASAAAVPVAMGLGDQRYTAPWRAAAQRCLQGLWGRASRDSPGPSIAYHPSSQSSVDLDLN
Outline: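 Agonist cAMP read-out: stable GPBAR1 CHO-dhfr− clone, 30 min compound exposure at 30° C following 30 min IBMX (1 mM) preincubation in Krebs Ringer bicarbonate. Time-resolved energy-transfer detection gives EC50; parental CHO cells serve as counter-screen.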

pEC50 | SMILES
5.06 | O/N=C(/CC(O)(c1ccccc1)c1ccccc1)c1ccncc1 [Example 155, (Z)-3-Hydroxy-3,3-diphenyl-1-pyridin-4-yl-propan-1-one oxime]

same assay, conditions: human EC50, functional cAMP assay, 30 min at 30° C.

pEC50 | SMILES
7.68 | Cc1cc(/C(C[C@@H](c2ccc(N3CCC(CC(=O)O)CC3)cc2)c2ccc(F)cc2F)=N/O)ccn1 (single isomer, unassigned) [Example 430, (1-{4-[(+)-1-(2,4-Difluoro-phenyl)-3-[(E)-hydroxyimino]-3-(2-methyl-pyridin-4-yl)-propyl]-phenyl}-piperidin-4-yl)-acetic acid]
6.26 | O/N=C(\CC(c1ccccc1)c1ccc(Br)cc1)c1cc(Cl)nc(Cl)c1 (stereo not drawn) [Example 47, (E)-3-(4-Bromo-phenyl)-1-(2,6-dichloro-pyridin-4-yl)-3-phenyl-propan-1-one oxime]
5.16 | Cc1ccccc1C(C/C(=N\O)c1ccc(=O)n(C)c1)c1ccc(C(=O)N2CCC(CC(=O)O)CC2)cc1 (stereo not drawn) [Example 210, (1-{4-[3-[(E)-Hydroxyimino]-3-(1-methyl-6-oxo-1,6-dihydro-pyridin-3-yl)-1-o-tolyl-propyl]-benzoyl}-piperidin-4-yl)-acetic acid]
6.55 | Cn1cc(/C(CC(c2ccc(C(=O)N[C@H]3CC[C@H](C(=O)O)CC3)c(F)c2)c2ccccc2Cl)=N/O)ccc1=O (stereo partly drawn) [Example 231, Trans-4-{4-[1-(2-Chloro-phenyl)-3-[(E)-hydroxyimino]-3-(1-methyl-6-oxo-1,6-dihydro-pyridin-3-yl)-propyl]-2-fluoro-benzoylamino}-cyclohexanecarboxylic acid]
6.46 | Cn1cc(/C(C[C@H](c2ccc(-c3ccc(C(=O)O)s3)cc2)c2ccc(Cl)cc2F)=N/O)ccc1=O [Example 468, 5-{4-[(−)-1-(4-Chloro-2-fluoro-phenyl)-3-[(E)-hydroxyimino]-3-(1-methyl-6-oxo-1,6-dihydro-pyridin-3-yl)-propyl]-phenyl}-thiophene-2-carboxylic acid]
6.38 | COC(=O)c1ccc(-c2ccc(C(C/C(=N\O)c3ccnc(C)c3)c3ccc(Cl)cc3F)cc2)cc1Cl (stereo not drawn) [Example 450, 3-Chloro-4′-[1-(4-chloro-2-fluoro-phenyl)-3-[(E)-hydroxyimino]-3-(2-methyl-pyridin-4-yl)-propyl]-biphenyl-4-carboxylic acid methyl ester]
6.79 | CCOC(=O)COc1cccc(-c2ccc(C(C/C(=N\O)c3ccncc3)c3ccccc3)cc2)c1 (stereo not drawn) [Example 28, (4′-{3-[(E)-Hydroxyimino]-1-phenyl-3-pyridin-4-yl-propyl}-biphenyl-3-yloxy)-acetic acid ethyl ester]
6.03 | Cc1ccccc1C(C/C(=N\O)c1cc(Cl)ccc1Cl)c1ccc(Br)cc1 (single isomer, unassigned; (-)) [Example 51, (−)-(E)-3-(4-bromo-phenyl)-1-(2,5-dichloro-phenyl)-3-o-tolyl-propan-1-one oxime]
7.51 | CC(=O)N1CC(c2ccc([C@@H](C/C(=N\O)c3ccnc(C)c3)c3ccccc3C)cc2)C1 [Example 483]
7.64 | Cn1cc(/C(CC(c2ccc(-c3ccc(C(=O)O)cc3)cc2)c2ccc(Cl)cc2F)=N/O)ccc1=O (stereo not drawn) [Example 238, 4′-[1-(4-Chloro-2-fluoro-phenyl)-3-[(E)-hydroxyimino]-3-(1-methyl-6-oxo-1,6-dihydro-pyridin-3-yl)-propyl]-biphenyl-4-carboxylic acid]
8.30 | Cc1cc(F)ccc1C(C/C(=N\O)c1ccc(=O)n(C)c1)c1ccc(-c2ccc(S(N)(=O)=O)cc2)cc1 (stereo not drawn) [Example 401, 4′-[1-(4-Fluoro-2-methyl-phenyl)-3-[(E)-hydroxyimino]-3-(1-methyl-6-oxo-1,6-dihydro-pyridin-3-yl)-propyl]-biphenyl-4-sulfonic acid amide]
7.47 | Cc1ccccc1C(CC(=NO)c1ccncc1)c1ccc(N2CCCCC2)cc1 (racemic) [Example 40, 3-(4-Piperidin-1-yl-phenyl)-1-pyridin-4-yl-3-o-tolyl-propan-1-one oxime]
7.30 | Cc1cc(/C(C[C@@H](c2ccc(N3CCOCC3)cc2)c2ccccc2C)=N/O)ccn1 [Example 381, (S,E)-1-(2-Methylpyridin-4-yl)-3-(4-morpholinophenyl)-3-o-tolylpropan-1-one oxime]
7.15 | Cc1cc(Cl)ccc1C(C/C(=N\O)c1ccc(=O)n(C)c1)c1ccc(Oc2ccc(F)c(C(=O)O)c2)cc1 (stereo not drawn) [Example 348, 5-{4-[1-(4-Chloro-2-methyl-phenyl)-3-[(E)-hydroxyimino]-3-(1-methyl-6-oxo-1,6-dihydro-pyridin-3-yl)-propyl]-phenoxy}-2-fluoro-benzoic acid]
7.48 | Cc1cc(/C(C[C@H](c2ccc(C3CCN(S(C)(=O)=O)CC3)cc2)c2ccc(Cl)cc2C)=N/O)ccn1 [Example 389, (R,E)-3-(4-Chloro-2-methylphenyl)-1-(2-methylpyridin-4-yl)-3-(4-(1-(methylsulfonyl)-piperidin-4-yl)phenyl)propan-1-one oxime]
7.70 | Cc1cc(/C(CC(c2ccc(-c3ccc(C(=O)O)cc3)cc2)c2ccccc2C(F)(F)F)=N/O)ccn1 (stereo not drawn) [Example 134, 4′-[3-[(E)-Hydroxyimino]-3-(2-methyl-pyridin-4-yl)-1-(2-trifluoromethyl-phenyl)-propyl]-biphenyl-4-carboxylic acid]
6.66 | Cc1ccccc1C(C/C(=N\O)c1ccc(=O)n(C)c1)c1ccc(C(=O)NC[C@H](C)O)cc1 (stereo partly drawn) [Example 247, 4-((E)-3-(Hydroxyimino)-3-(1-methyl-6-oxo-1,6-dihydropyridin-3-yl)-1-o-tolylpropyl)-N-((S)-2-hydroxypropyl)benzamide]
8.52 | Cc1cc(/C(C[C@@H](c2ccc(-c3ccc(C(=O)O)cc3)cc2)c2ccc(F)cc2C)=N/O)ccn1 (single isomer, unassigned) [Example 398, (−)-4′-[1-(4-Fluoro-2-methyl-phenyl)-3-[(E)-hydroxyimino]-3-(2-methyl-pyridin-4-yl)-propyl]-biphenyl-4-carboxylic acid; compound with triethylamine 1:0.75]
7.05 | COCCOCCn1cc(/C(CC(c2ccc(S(C)(=O)=O)cc2)c2ccc(Cl)cc2C)=N/O)ccc1=O (stereo not drawn) [Example 339, (E)-5-(3-(4-chloro-2-methylphenyl)-1-(hydroxyimino)-3-(4-(methylsulfonyl)phenyl)propyl)-1-(2-(2-methoxyethoxy)ethyl)pyridin-2(1H)-one]
6.17 | Cn1cc(/C(CC(c2ccc(C(=O)NC3COC3)c(F)c2)c2ccccc2Cl)=N/O)ccc1=O (stereo not drawn) [Example 220, (E)-4-(1-(2-Chlorophenyl)-3-(hydroxyimino)-3-(1-methyl-6-oxo-1,6-dihydropyridin-3-yl)propyl)-2-fluoro-N-(oxetan-3-yl)benzamide]
7.74 | Cc1cc(Cl)ccc1C(C/C(=N\O)c1ccc(=O)n(C)c1)c1ccc(-c2ccc(C(=O)NCc3nnn[nH]3)cc2)cc1 (stereo not drawn) [Example 230, (E)-N-((1H-tetrazol-5-yl)methyl)-4′-(1-(4-chloro-2-methylphenyl)-3-(hydroxyimino)-3-(1-methyl-6-oxo-1,6-dihydropyridin-3-yl)propyl)biphenyl-4-carboxamide]
7.14 | Cc1cc(C(CC(c2ccccc2)c2ccccc2)=NO)ccn1 (racemic) [Example 57, 1-(2-Methyl-pyridin-4-yl)-3,3-diphenyl-propan-1-one oxime]
7.77 | Cc1cc(/C(CC(c2ccc(-c3ccc(C(=O)O)s3)cc2)c2ccc(Cl)cc2F)=N/O)ccn1 (stereo not drawn) [Example 457, 5-{4-[1-(4-Chloro-2-fluoro-phenyl)-3-[(E)-hydroxyimino]-3-(2-methyl-pyridin-4-yl)-propyl]-phenyl}-thiophene-2-carboxylic acid]
7.04 | Cc1ncsc1C(C/C(=N\O)c1ccc(=O)n(C)c1)c1ccc(Br)cc1 (stereo not drawn) [Example 330, (E)-5-(3-(4-Bromophenyl)-1-(hydroxyimino)-3-(4-methylthiazol-5-yl)propyl)-1-methylpyridin-2(1H)-one]
7.92 | Cc1cc(F)ccc1[C@@H](C/C(=N\O)c1ccc(=O)n(C)c1)c1ccc(-c2ccc(S(N)(=O)=O)cc2)cc1 (single isomer, unassigned) [Example 407, (+)-4′-[1-(4-Fluoro-2-methyl-phenyl)-3-[(E)-hydroxyimino]-3-(1-methyl-6-oxo-1,6-dihydro-pyridin-3-yl)-propyl]-biphenyl-4-sulfonic acid amide]
6.66 | CCOCCn1cc(/C(CC(c2ccc(S(C)(=O)=O)cc2)c2ccc(Cl)cc2C)=N/O)ccc1=O (stereo not drawn) [Example 340, (E)-5-(3-(4-Chloro-2-methylphenyl)-1-(hydroxyimino)-3-(4-(methylsulfonyl)phenyl)-propyl)-1-(2-ethoxyethyl)pyridin-2(1H)-one]
7.92 | Cc1cc(/C(C[C@H](c2ccc(C3=CC(=O)NCC3)cc2)c2ccccc2C)=N/O)ccn1 [Example 377, (R,E)-4-(4-(3-(Hydroxyimino)-3-(2-methylpyridin-4-yl)-1-o-tolylpropyl)phenyl)-5,6-dihydropyridin-2(1H)-one]
7.77 | Cc1cc(/C(C[C@H](c2ccc(N3CCN(S(C)(=O)=O)CC3)cc2)c2ccccc2C)=N/O)ccn1 [Example 144, (E,R)-1-(2-Methylpyridin-4-yl)-3-(4-(4-(methylsulfonyl)piperazin-1-yl)phenyl)-3-o-tolylpropan-1-one oxime]
7.12 | Cc1cc(/C(CC(c2cccc(-c3cccc(C(=O)NCC(=O)O)c3)c2)c2ccccc2C)=N/O)ccn1 (stereo not drawn) [Example 108, ({3′-[3-[(E)-Hydroxyimino]-3-(2-methyl-pyridin-4-yl)-1-o-tolyl-propyl]-biphenyl-3-carbonyl}-amino)-acetic acid]
